Reference: publication PMC5441580, “GPR40 partial agonist MK-2305 lower fasting glucose in the Goto Kakizaki rat via suppression of endogenous glucose production” (PLoS ONE, 2017)
Where “and” joins values, the source holds several entries; their conditions need not be identical. Equal entries are not always repeated.

Assays:
GK rats = test: OGTT with insulin co-measurement on Day 13 of chronic treatment, parallel set of animals; format: in vivo, rat; parameters: Change in plasma insulin from baseline during OGTT (delta insulin): unit not given here; settings: for Change in plasma insulin from baseline during OGTT (delta insulin): day 13, individual animals
Protocol: On the day of the study, male GK rats were bled via tail snip, and blood glucose was measured via glucometer (OneTouch Ultra, Lifescan Inc., Milpitas, CA). Fed glucose was measured at 8 A.M. (lights on 7 A.M.– 7 P.M.) and used to select and sort animals into treatment groups (n = 8/ GK group, plus n = 6/WKY control group). Animals were then placed into clean cages, and food was removed. After a 5 hr fast, glucose was measured at time = -60 min, followed by administration of vehicle plus or minus compound via oral gavage (PO) at a dosing volume of 5 ml/kg. Dosages from 0.3–10 mg MK-2305 / kg body weight were tested. Both the GK and WKY control groups received vehicle (0.5% methylcellulose). Blood glucose was measured again (time = 0) immediately prior to a dextrose challenge of 1 g/kg at 10 ml/kg dose volume (Dextrose, Hospira Inc., Lake Forrest IL) and then again at 20, 40, 60, and 120 min after the glucose challenge. Insulin was co-measured to test the glucose-dependent secretory response to MK-2305 delivered acutely PO. To capture insulin secretion during the OGTT, blood was collected at t = -60, 0, 20, 40, 60 min post glucose challenge. […] Values of percent inhibition vs. vehicle for each treatment were generated from the AUC data. Maximally efficacious dose (MED) was defined as the minimum dosage generating a maximum inhibition of glucose excursion achieved with this compound in the OGTT assay.
In a parallel set of animals (n = 30) treated with standard diet or MK-2305 at 30 mg/kg diet, an OGTT with insulin co-measurement was performed on Day 13. On the day of OGTT, n = 10 vehicle animals and n = 10 MK-2305-treated animals were administered 0.5% methylcellulose PO at a dosing volume of 5 ml/kg. For an acute comparison, n = 10 vehicle animals were administered MK-2305 at 30 mg/kg PO. The procedure for an acute OGTT was identical to that described above.

human GPR43 (FFAR2) = target: T1, human GPR43 (FFAR2) (Homo sapiens, UniProt O15552); test: cAMP (LANCE) functional assay, CHO cells expressing human GPR43; format: cell-based
T1 construct: expressed in transfected cells
T1 sequence (O15552 1-330): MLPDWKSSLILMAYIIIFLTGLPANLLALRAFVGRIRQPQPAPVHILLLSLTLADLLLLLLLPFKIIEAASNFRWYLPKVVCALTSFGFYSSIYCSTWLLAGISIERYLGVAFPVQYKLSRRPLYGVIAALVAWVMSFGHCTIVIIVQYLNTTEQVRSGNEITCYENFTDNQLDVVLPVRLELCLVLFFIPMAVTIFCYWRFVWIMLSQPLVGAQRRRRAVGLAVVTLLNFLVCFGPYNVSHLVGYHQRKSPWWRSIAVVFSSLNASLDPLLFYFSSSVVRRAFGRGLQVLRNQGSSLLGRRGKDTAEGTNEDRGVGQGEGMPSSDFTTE
Protocol: CHO cells stably expressing human GPR41 or human GPR43 were harvested with non-enzymatic cell dissociation buffer and re-suspended in LANCE stimulation buffer (prepared as described by PE) at 0.25 million cells per ml (3.3 million cells per ml for GPR43) and 6 μl was then plated into each well of a 384-well Culturplate. Compounds were serially diluted in DMSO and then diluted further into stimulation buffer containing 2 μM forskolin (Sigma) at 2-times final concentration in the assay. 6 μl of the diluted compounds were then added to the assay plate and the plate incubated for 60 mins at room temperature. After the incubation, 12 μl of detection reagent (prepared as described by PE) was added to each well and the plates incubated one additional hour at room temperature. After the final incubation, the plates were read in a Perkin Elmer Envision reader with a method designed for Time-resolved fluorescence (TRF) assays (340 nm excitation, dual emission 615 and 655 nm). For each assay, a cAMP standard curve plate was also included. All fluorescent readings (using the 655/615 nm ratio) were converted to cAMP concentration using the cAMP standard curve and the percent activity at each concentration of test compound was determined using 0% activation (basal activity) determined in those wells containing DMSO alone, while 100% activity was determined in wells containing a concentration of agonist know to maximally activate the receptor.

% Activation (human GPR43 (FFAR2); @ 25 μM): 61 @ 25 μM % and 61% | % Effect (human GPR43 (FFAR2); Dose 1.267 nM): -23% | % Effect (human GPR43 (FFAR2); Dose 3.801 nM): -37% | % Effect (human GPR43 (FFAR2); Dose 34.208 nM): -32% | % Effect (human GPR43 (FFAR2); Dose 102.624 nM): 25% | % Effect (human GPR43 (FFAR2); Dose 307.872 nM): -78% | % Effect (human GPR43 (FFAR2); Dose 923.617 nM): -34% | % Effect (human GPR43 (FFAR2); Dose 2770.85 nM): -39% | % Effect (human GPR43 (FFAR2); Dose 8312.55 nM): -23% | % Effect (human GPR43 (FFAR2); Dose 24938 nM): 61% | EC50 (human GPR43 (FFAR2); cAMP, CHO cells expressing human GPR43): > 25 µM
SMILES: O=C1NC(=O)C(C2CCOc3cc(Oc4ccc(C(F)(F)F)cc4Cl)ccc32)S1 (centres unmarked) [MK-2305]
Change in plasma insulin from baseline during OGTT (delta insulin) (GK rats; Acute, 30 mpk, Time 0, 30 mg/kg): 0.309 and 1.604 and 0.324 and 0.21 and 0.156 and 0.86 and 1.776 and 0.805 and -0.061 and 0.012 | Change in plasma insulin from baseline during OGTT (delta insulin) (GK rats; Acute, 30 mpk, Time 20, 30 mg/kg): 1.499 and 1.114 and 1.989 and 2.273 and 1.824 and -0.14 and 3.286 and 1.17 and 0.172 and 0.765 | Change in plasma insulin from baseline during OGTT (delta insulin) (GK rats; Acute, 30 mpk, Time 60, 30 mg/kg): 0.099 and 0.177 and 0.004 and -0.004 and -0.413 and -0.187 and -0.251 and 0.259 and -0.133 and 0.416 | Change in plasma insulin from baseline during OGTT (delta insulin) (GK rats; Acute, 30 mpk, Time -60): 0 | Change in plasma insulin from baseline during OGTT (delta insulin) (GK rats; Chronic, 30 mkd, Time 0): 0.06 and -0.177 and -0.627 and -0.109 and -0.564 and -0.273 and 0.845 and 0.077 and 0.103 and 0.198 | Change in plasma insulin from baseline during OGTT (delta insulin) (GK rats; Chronic, 30 mkd, Time 20): 0.473 and 0.233 and 0.417 and 0.389 and 0.164 and 0.072 and 0 and 0.34 and 0.387 and 0.196 | Change in plasma insulin from baseline during OGTT (delta insulin) (GK rats; Chronic, 30 mkd, Time 60): -0.534 and -0.189 and -0.192 and 0.192 and -0.625 and -0.523 and -0.322 and -0.003 and -0.166 and -0.044 | Change in plasma insulin from baseline during OGTT (delta insulin) (GK rats; Chronic, 30 mkd, Time -60): 0 | effect on plasma insulin after a glucose challenge (GK rats; OGTT Day 13, 30 mg/kg acutely PO and chronically in diet, vs. vehicle): increased plasma insulin
